Like-named read-outs stand apart in the source and are kept apart here.
Experiments:
Human D3 Receptors = target: T1, Human D3 Receptors (Homo sapiens, UniProt P35462); test: Inhibition of [^3 H]spiperone binding to human D3 receptors
T1 construct: expressed in transfected cells
From the text: Dopamine D2 antagonists are established as antipsychotic agents. More recently, the dopamine D3 receptor has been identified. On the basis of the localization of the dopamine D3 receptor in the limbic area of the brain, a selective D3 antagonist should show antipsychotic activity but not have the neurological side effects of D2 antagonists. […] The above test methods are incorporated herein by reference.

Human D2 Receptors = target: T2, Human D2 Receptors (Homo sapiens, UniProt P14416); test: Inhibition of [^3 H]spiperone binding to human D2 receptors
T2 construct: expressed in transfected cells
T2 sequence (P14416 whole entry): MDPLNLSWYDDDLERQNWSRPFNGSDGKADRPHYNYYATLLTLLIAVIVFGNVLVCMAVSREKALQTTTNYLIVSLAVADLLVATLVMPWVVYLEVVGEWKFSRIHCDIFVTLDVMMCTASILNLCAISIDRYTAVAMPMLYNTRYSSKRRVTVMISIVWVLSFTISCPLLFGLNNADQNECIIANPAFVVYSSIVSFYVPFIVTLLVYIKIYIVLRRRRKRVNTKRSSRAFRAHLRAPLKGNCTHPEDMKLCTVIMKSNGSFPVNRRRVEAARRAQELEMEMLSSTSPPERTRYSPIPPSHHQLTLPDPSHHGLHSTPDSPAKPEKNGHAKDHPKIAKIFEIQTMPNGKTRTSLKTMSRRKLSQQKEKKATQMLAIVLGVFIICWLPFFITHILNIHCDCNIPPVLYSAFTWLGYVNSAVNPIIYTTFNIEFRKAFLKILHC
From the text: (§1) The compounds of Formula I are valuable dopaminergic agents. Dopamine D2 antagonists are established as antipsychotic agents. More recently, the dopamine D3 receptor has been identified. On the basis of the localization of the dopamine D3 receptor in the limbic area of the brain, a selective D3 antagonist should show antipsychotic activity but not have the neurological side effects of D2 antagonists. The tests employed indicate that compounds of Formula I bind selectively to the dopamine D3 receptor. Thus, the compounds of Formula I were tested for their ability to bind to dopamine receptors as measured by their inhibition of [^3 H]spiperone binding to the human D2 and D3 receptors in a receptor assay described by MacKenzie R. G., et al., Characterization of the human D3 dopamine receptor expressed in transfected cell lines, Eur. J. Pharmacol., 266:79 (1994); and for their ability to inhibit locomotor activity in mice and rats, a measure of antipsychotic activity, according to the assay described by McLean J. R., et al., Pharmacology, Biochemistry and Behavior, 8:97-99 (1978). The above test methods are incorporated herein by reference.

[1] = tested on: Locomotor Activity in Rats; test: Inhibition of locomotor activity in rats; assay type: in vivo; details: Rattus norvegicus, IP
From the text: as §1

[2] = human D3, transfected cell lines, read-out: Inhibition of [^3 H]Spiperone Binding to Human D3 Receptors IC50
[3] = human D2, read-out: Inhibition of [^3 H]Spiperone Binding to Human D2 Receptors IC50

T1 sequence (P35462 whole entry): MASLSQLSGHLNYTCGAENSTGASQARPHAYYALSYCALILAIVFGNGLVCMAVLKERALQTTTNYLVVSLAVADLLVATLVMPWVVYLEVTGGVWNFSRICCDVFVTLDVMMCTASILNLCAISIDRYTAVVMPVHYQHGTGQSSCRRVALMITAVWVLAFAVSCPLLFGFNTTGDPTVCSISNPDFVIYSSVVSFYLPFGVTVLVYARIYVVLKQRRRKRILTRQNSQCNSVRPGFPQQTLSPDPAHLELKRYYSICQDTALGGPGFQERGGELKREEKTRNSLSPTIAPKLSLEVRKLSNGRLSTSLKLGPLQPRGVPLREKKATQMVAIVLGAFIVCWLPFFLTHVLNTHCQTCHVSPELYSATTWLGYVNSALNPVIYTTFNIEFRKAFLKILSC

IC50 (Human D3 Receptors; [2]) [nM] | IC50 (Human D2 Receptors; [3]) [nM] | Compound | also measured
19 | 119 | CCCSc1ccccc1N1CCN(CCNC(=O)c2ccc(-c3nc4ccccc4[nH]3)cc2)CC1 [Example 19, 4-(1H-Benzimidazol-2-yl)-N-[2-[4-[2-(propylthio)phenyl]-1-piperazinyl]ethyl]benzamide] | –
– | 1270 | Clc1cccc(N2CCN(CCCOc3ccc(-c4nc5ccccc5[nH]4)cc3)CC2)c1 [Example 12, 2-[4-[3-[4-(3-Chlorophenyl)-1-piperazinyl]-propoxy]phenyl]-1H-benzimidazole] | –
– | – | COc1ccccc1N1CCN(CCCOc2ccc(-c3nc4ccccc4[nH]3)cc2)CC1 [Example 10, 2-[4-[3-[4-(2-Methoxyphenyl)-1-piperazinyl]-propoxy]phenyl]-1H-benzimidazole] | IC50 (Human D2 Receptors): 8 nM
1.7 | 45 | Clc1cccc(N2CCN(CCCOc3ccc(-c4nc5ccccc5[nH]4)cc3)CC2)c1Cl [Example 2, 2-[4-[3-[4-(2,3-Dichlorophenyl)-1-piperazinyl]propoxy]phenyl]-1H-benzimidazole] | –
1.3 | 32 | c1ccc(N2CCN(CCCCc3ccc(-c4nc5ccccc5[nH]4)cc3)CC2)cc1 [Example 22, 2-[4-[4-(4-Phenyl-1-piperazinyl)butyl]phenyl]-1H-benzimidazole] | –
1.7 | 581 | C(#Cc1ccc(-c2nc3ccccc3[nH]2)cc1)CCN1CCN(c2ccccc2)CC1 [Example 15, 2-[4-[4-(4-Phenyl-1-piperazinyl)-1-butynyl]phenyl]-1H-benzimidazole] | –
102 | 2780 | Cc1ccc(N2CCN(CCCOc3ccc(-c4nc5ccccc5[nH]4)cc3)CC2)cc1 [Example 5, 2-[4-[3-[4-(4-Methylphenyl)-1-piperazinyl]propoxy]phenyl]-1H-benzimidazole] | –
– | 269 | c1cnc(N2CCN(CCCOc3ccc(-c4nc5ccccc5[nH]4)cc3)CC2)nc1 [Example 4, 2-[4-[3-[4-(2-Pyrimidinyl)-1-piperazinyl]propoxy]phenyl]-1H-benzimidazole] | –
– | 3.7 | CCCSc1ccccc1N1CCN(CCCOc2ccc(-c3nc4ccccc4[nH]3)cc2)CC1 [Example 7, 2-[4-[3-[4-[2-(Propylthio)phenyl]-1-piperazinyl]propoxy]phenyl]-1H-benzimidazole] | –
3 | 329 | Clc1cccc(N2CCN(CCCOc3ccc(-c4nc5cccnc5[nH]4)cc3)CC2)c1Cl [Example 13, 2-[4-[3-[4-(2,3-Dichlorophenyl)-1-piperazinyl]propoxy]phenyl]-3H-imidazo[4,5-b]pyridine] | ED50 [1]: 4.2 mg/kg
24 | 55 | COc1ccccc1N1CCN(CCNC(=O)c2ccc(-c3nc4ccccc4[nH]3)cc2)CC1 [Example 20, 4-(1H-Benzimidazol-2-yl)-N-[2-[4-(2-methoxyphenyl)-1-piperazinyl]ethyl]benzamide] | –
– | 784 | Clc1ccc(N2CCN(CCCOc3ccc(-c4nc5ccccc5[nH]4)cc3)CC2)cc1 [Example 9, 2-[4-[3-[4-(4-Chlorophenyl)-1-piperazinyl]propoxy]phenyl]-1H-benzimidazole] | –
1.6 | 22 | c1ccc(N2CCN(CCCNc3ccc(-c4nc5ccccc5[nH]4)cc3)CC2)cc1 [Example 17, N-[4-(1H-Benzimidazol-2-yl)phenyl]-4-phenyl-1-piperazine-3-propanamine] | –
– | 70 | c1ccc(N2CCN(CCCOc3ccc(-c4nc5ccccc5[nH]4)cc3)CC2)nc1 [Example 3, 2-[4-[3-[4-(2-Pyridinyl)-1-piperazinyl]propoxy]phenyl]-1H-benzimidazole] | –
16 | 119 | Fc1ccc(N2CCN(CCCOc3ccc(-c4nc5ccccc5[nH]4)cc3)CC2)cc1 [Example 6, 2-[4-[3-[4-(4-Fluorophenyl)-1-piperazinyl]propoxy]phenyl]-1H-benzimidazole] | –
1 | 406 | c1ccc(N2CCN(CCCOc3ccc(-c4nc5ccccc5[nH]4)cc3)CC2)cc1 [Example 1, 2-[4-[3-(4-Phenyl-1-piperazinyl)propoxy]phenyl]-1H-benzimidazole] | ED50 [1]: 2.3 mg/kg
– | 281 | O=C(NCCN1CCN(c2ccccc2)CC1)c1ccc(-c2nc3ccccc3[nH]2)cc1 [Example 18, 4-(1H-Benzimidazol-2-yl)-N-[2-(4-phenyl-1-piperazinyl)ethyl]benzamide] | –
– | 265 | COc1ccc(N2CCN(CCCOc3ccc(-c4nc5ccccc5[nH]4)cc3)CC2)cc1 [Example 11, 2-[4-[3-[4-(4-Methoxyphenyl)-1-piperazinyl]-propoxy]phenyl]-1H-benzimidazole] | –
81 | 100 | C(=C/c1ccc(-c2nc3ccccc3[nH]2)cc1)/CCN1CCN(c2ccccc2)CC1 [Example 21, (Z)-2-[4-[4-(4-Phenyl-1-piperazinyl)-1-butenyl]phenyl]-1H-benzimidazole] | –
9.5 | 219 | Cn1c(-c2ccc(OCCCN3CCN(c4ccccc4)CC3)cc2)nc2ccccc21 [Example 14, 1-Methyl-2-[4-[3-(4-phenyl-1-piperazinyl)-propoxy]phenyl]-1H-benzimidazole] | –

Compound | IC50 (Human D3 Receptors; [2]) [nM] | IC50 (Human D2 Receptors; [3]) [nM] | also measured
c1ccc(N2CCN(CCCCOc3ccc(-c4nc5ccccc5[nH]4)cc3)CC2)cc1 [Example 16, 2-[4-[4-(4-Phenyl-1-piperazinyl)butoxy]phenyl]-1H-benzimidazole] | 1.7 | 46 | –
C1=C(c2ccccc2)CCN(CCCOc2ccc(-c3nc4ccccc4[nH]3)cc2)C1 [Example 8, 2-[4-[3-(3,6-Dihydro-4-phenyl-1(2H)-pyridinyl)propoxy]phenyl]-1H-benzimidazole] | – | 672 | IC50 (Human D3 Receptors): 18 nM

— US5486517A, “Benzimidazoles and imidazopyridines as central nervous system agents” (Warner-Lambert Company, priority 1994, dated 1996)
